Laboratory results from patent publication US6797285B1, “Leaves of Cajanus Cajan(L.) Millsp and extract, formulation and uses thereof” (priority 1999, dated 2004).
Marks after values point to notes of the source that are not given here.

What was measured:
[1] = test system: mouse pain induced by acetic acid; experiment: writhing response on mouse (acetic acid); format: in vivo, NIH mice; settings: 0.013 g/kg/day, gavage 7 days
Procedure: Divided the mice into 5 groups randomly, i.e. control group (0.2 ml/10 g distilled water), indometacin-treated group (0.013 g/kg) and three Shengmaichenggu capsule-treated groups (dosages are shown in table 10). The mice were administered by gavage for 7 days. […] Recorded the first time when the writhing response appeared caused by pain for each mouse, the number of the writhing response appeared in 10 minute and the analgesic percent.

[2] = test system: mouse pinnal inflammation caused by dimethylbenzene; experiment: mouse pinnal inflammation induced by dimethylbenzene; format: in vivo, NIH mice; settings: 0.013 g/kg/day, gavage 7 days
Procedure: Divided the mice into 5 groups randomly with 8 mice each, i.e. control group, indometacin-treated group and three Shengmaichenggu capsule-treated groups (dosages are shown in table 12). The mice were administered medicaments in different concentration by gavage. […] Killed the mice after […] by decollation. Cut out the equal area at the same position from both ears of the mouse with perforator, and weighted with torsion balance. The swell degree is defined as the weight difference of subtracting the weight of the right ear from that of the left. Analyzed the data of swell degree of the control group and the treated groups statistically.

threshold of pain = experiment: hot-plate test on mouse; format: in vivo, NIH female mice
Procedure: Adjusted the temperature of water bath box to 55° C.±1° C. I.C. Immersed one big beaker in the water bath and put mice into the beaker. Recorded the period from the time when animals were put into the beaker to that when animals licked feet due to pain, and defined the period as the threshold of pain of that mouse.
Screened out the mice whose threshold of pain were in the range of 5-30 seconds, and divided them randomly into 5 groups including control group, indometacin-treated group and three Shengmaichenggu capsule-treated groups (The dosage are shown in table 11). Administered medicaments to animals by gavage for continuous 7 days. Determined the threshold of pain at the time of 30 minutes and 60 minutes after the administration at day 7 respectively, and observed the changes in the threshold of pain after administration. Room temperature should be controlled in the range of 15-20° C.

serum hemolysin = experiment: hemolysin content of mouse immunised by chicken blood cells; format: in vivo, NIH mice; settings: 0.04 g/kg/day
Procedure: The grouping and administering scheme was the same as that of the above-mentioned Experiment of nonspecific immunological functions. At the first day of administration, injected 5% suspension of chicken red blood cells to abdominal cavity of mice at a dosage of 0.2 ml/one mouse. Seven days after immunization, took blood from eyeball and centrifuged. The serum was diluted 100 times with physiological saline. 1 ml of the diluted serum was mixed with 0.5 ml of 5% suspension of chicken red blood cells and 0.5 ml of 10% complement. After incubation in an incubator at 37° C. for 30 minutes, the reaction was terminated by putting the mixture into a 0° C. refrigerator.
The formulated test solution was centrifuged. Took the supernatant and detected optical density (OD) by colorimetric analysis in 722-grating photometer (λ=620). Set up a control group free of serum and took the supernatant of the centrifuged test solution of this group as the “0” basis for colorimetric assay. Took “OD” as the index for quantifying the serum hemolysin and analysed the data statistically.

mice lymphocyte = experiment: cellular immunity test: transformation reaction of mice lymphocyte (PHA); format: in vivo, NIH mice; settings: 0.04 g/kg/day
Procedure: The mice were divided into 6 groups randomly, i.e. control group, model group levamisole-treated group, and three Shengmaichenggu capsule-treated groups at different dosages (dosages are shown in table 17). Administered by gavage once a day for continuous 7 days. After the last administration, all the animals were immunized by injecting 5% suspension of chicken red blood cells to abdominal cavity at a dosage of 0.2 ml/one mouse. Then the animals were injected PHA to abdominal cavity at a dosage of 0.025 ml/10 g for continuous 3 days. All groups except control group were administered prednisone acetate at a dosage of […] body weight by gavage for continuous 7 days. At the time of 12 hours after last administration, the experiment was carried out according to the Experiment of the content of mouse hemolysin mentioned above in which chicken blood cells were used as immunogen.

monocytophagous function = monocytophagous function of mouse (china ink clearance), prednisone acetate immunosuppression; format: in vivo, NIH mice; settings: 0.04 g/kg/day, gavage 20 days
Procedure: (§1) The mice were divided into 6 groups randomly, i.e. control group, modeled group, levamisole-treated group, and three Shengmaichenggu capsule-treated groups (dosages are shown in table 14). […] Administered distilled water to the control group by gavage in the same period. At the time of 30 minutes after administering on the day 20, injected […] into tail vein at a dosage of 0.01 ml/l10 g. At the 2th and 12th minute after injection, took 10 μl orbit blood and put into 3 ml 0.1% Na2CO3 solution and shook up. Detected optical density (OD) by colorimetric analysis in 722-grating photometer (λ=620). […] The animals were killed by dislocating cervical vertebra. The liver and spleen were weighted respectively. Determined the weight of immune organs of every mouse according to the immune organ weighting method. Calculated the immune organ index and made a statistical analysis for the result.

[3] = test system: immune organs (thymus, spleen); experiment: immune organ coefficient of mouse, prednisone acetate immunosuppression; format: in vivo, NIH mice; settings: Dosage/kg/day 0.04
Procedure: as §1

tampon-induced granuloma = experiment: granuloma induced by tampon on rat; format: in vivo, SD rats; settings: 25 mg/kg/day, gavage
Procedure: The rats were divided into 5 groups randomly with 12 rats each group, i.e. control group, prednisone acetate-treated group and three Shengmaichenggu capsule-treated groups. An incision was made aseptically along the dorsimeson of a rat anesthetized by pentobarbital sodium and a sterilized tampon was imbedded into the incision and sewed up. The treated groups were administered by gavage 3 days before surgery until the day 7 after surgery. At the 8th day after surgery, the rats were killed by decollation. Avulsed out the tampon-caused granuloma tissue and dried it at 60-90° C. in a oven for 1 hour. Then weighted and subtracted the initial weight of tampon to get the net weight of granuloma tissue. Compared the granuloma weight among these groups and analyzed the results statistically.

acute blood stasis model = experiment: hermorheology index of rat acute blood stasis model; format: in vivo, SD rats; settings: 90 mg/kg/day, gavage 20 days
Procedure: The rats were divided into 6 groups randomly, i.e. normal control group, blood stasis model group, Tetramethylpyrazine phosphate-treated group and three Shengmaichegngu capsule-treated groups (the dosage were shown in table 9). The control group and the blood stasis model group were administered equal volume of distilled water by gavage. Every treated groups were administered liquor drug with different concentrations at a dosage of 2 ml/100 g weight/day, once daily at a fixed time for 20 days. When 24 hours after the last administration, animals except the normal control group were injected epinephrine hydrochloride hypodermically for two times (0.8 mg/kg) with an interval of 3 hours. The rats were immersed in water at 4±1° C. for 5 minutes at the time of 1.5 hour after the first injection of epinephrine hydrochloride, then the animals fast. In the next morning, eyeball blood was taken from anesthetized animals (injected pentobarbital sodium to abdominal cavity at a dosage of 30 mg/kg ). Hermorheology indexes were determined which include specific viscosity of whole blood, specific viscosity of plasma, erythrocyte sedimentation and hematokrit.

For `COc1ccc2c(c1)c(CC(=O)O)c(C)n2C(=O)c1ccc(Cl)cc1` [Indometacin, indometacin], the Analgesic percent [1] was 75## %, the “Number of writhing mice” value [1] was 2## and the “The First time when the writhing response appeared” value [1] was 572.75 ± 182.13 s. For the same compound, the Swell degree [2] was 0.5500 ± 0.258 mg, the “Threshold of pain at different time after administration, 30 min” value (threshold of pain; 0.013 g/kg/day, day 7, 30 min) was 28.07 ± 6.67 S and the “Threshold of pain at different time after administration, 60 min” value (threshold of pain; 0.013 g/kg/day, day 7, 60 min) was 24.64 ± 6.49 S. The “Threshold of pain before administration” value (threshold of pain; baseline, group 0.013 g/kg/day) was 18.93 ± 5.41 S.

With `c1ccc([C@H]2CN3CCSC3=N2)cc1` [Levamisole, levamisole] the “OD (Optical density), hemolysin content” value (serum hemolysin) was 0.7370 ± 0.1444, the “Transformation rate of lymphocyte” value (mice lymphocyte) was 0.7370 ± 0.03234 % and the limphoblast (mice lymphocyte) was 0.4310 ± 0.05043 %. The transition state cells (mice lymphocyte) was 0.3050 ± 0.0495 %, the “Phagocytic activity α” value (monocytophagous function) was 5.1964 ± 0.7761 and the “Phagocytic count K” value (monocytophagous function) was 0.0273 ± 0.00852. For the same compound, the “Immune organ coefficient, Spleen” value [3] was 52.82 ± 0.887 mg/kg and the “Immune organ coefficient, Thymus” value [3] was 1.501 ± 0.334 mg/kg.

With `CC(=O)OCC(=O)[C@@]1(O)CC[C@H]2[C@@H]3CCC4=CC(=O)C=C[C@]4(C)[C@H]3C(=O)C[C@@]21C` [Prednisone acetate, prednisone acetate] the “Net weight of granuloma” value (tampon-induced granuloma) was 33.45 ± 13.10 mg.

With `Cc1nc(C)c(C)nc1C.O=P(O)(O)O` [Tetramethylpyrazine phosphate] the Erythrocyte sedimentation (acute blood stasis model) was 1.80 ± 0.27, the Hematokrit (acute blood stasis model) was 43.55 ± 2.39 and the “Specific viscosity of plasma” value (acute blood stasis model) was 1.95 ± 0.08. For the same compound, the “Specific viscosity of whole blood, High shearviscosity coefficient” value (acute blood stasis model) was 5.59 ± 0.40 and the “Specific viscosity of whole blood, Lower shearviscosity coefficient” value (acute blood stasis model) was 20.87 ± 2.63.
